Test results: patent US20110217297A1, “METHODS FOR CLASSIFYING AND TREATING BREAST CANCERS” (priority 2010, published 2011)
Entries after “also recorded” stand apart in the source; their conditions may differ.

Experiments:
tumors = conditions: TNP-470 below maximum tolerated dose plus cyclophosphamide 170 mg/kg, every 6 days, in combination; cited from earlier work
[1] = system: breast cancer molecular subtypes I-VI; assay: Metastasis-free and overall survival of breast cancer patients treated with CMF or CAF adjuvant chemotherapy, compared in each molecular subtype (log-rank test); assay type: in vivo, human; conditions: for sensitivity / response of the breast cancer subtype to the drug or regimen: molecular subtype IV breast cancer, inferred from CMF vs CAF survival
Text: Patients who had been diagnosed, treated and followed for breast cancer progression between 1991 and 2003 at the Koo Foundation Sun Yat-Sen Cancer Center (KFSYSCC), and had their fresh breast cancer tissue frozen in liquid nitrogen at the institutional tumor bank were identified. […] The study was approved by the institutional review board. Samples deposited in the tumor bank were randomly selected. A total of 447 cases were available. Samples of insufficient RNA (n=1), poor RNA quality (n=116) or unacceptable microarray quality (n=18) were excluded from the study, leaving 312 random samples available (Cohort-1). Gene expression profiles of 15 additional lobular carcinomas of breast collected between 1999 and 2004 were also included in the study (Cohort 2). Thus, the total number of samples was 327.
All statistical analyses were conducted using SAS/STAT software (ver. 9.1.3) (SAS Institute, Inc.) and R software package (v2.6) from Bioconductor. Fisher's exact test was conducted to determine statistical correlation between molecular subtypes and various clinical phenotypes. The exact p values were estimated by Monte Carlo simulation. Log-rank test was used to analyze survival differences between different molecular subtypes or treatment groups.
The breast cancer samples used in this study were collected over a period of more than 10 years. The period covered a major shift of chemotherapy regimen from CMF (cyclophosphamide-methotrexate-fluorouracil) therapy to CAF (cyclophosphamide-adriamycin-fluorouracil) therapy around 1997 and 1998. The cohorts in this study offered a precious opportunity to investigate how different molecular subtypes of breast cancer responded differently to this change of adjuvant chemotherapy regimen.
Metastasis-free and overall survival were compared for patients treated with CMF and CAF for adjuvant therapy in each molecular subtype. […] Nevertheless, the CAF group had more N stage=1 patients and the CMF group had more N stage=0 patients (Table 15b).

CO[C@@H]1[C@H](OC(=O)NC(=O)CCl)CC[C@]2(CO2)[C@H]1[C@@]1(C)O[C@@H]1CC=C(C)C [TNP-470]
tumor response to the treatment regimen (tumors): complete regression

COc1cccc2c1C(=O)c1c(O)c3c(c(O)c1C2=O)C[C@@](O)(C(=O)CO)C[C@@H]3O[C@H]1C[C@H](N)[C@H](O)[C@H](C)O1 [adriamycin, doxorubicin]
treatment results (metastasis-free and overall survival), CAF vs CMF adjuvant chemotherapy ([1]; molecular subtype IV breast cancer patients, adjuvant chemotherapy after surgery): dramatic impact; also recorded: significantly improved
sensitivity / response of the breast cancer subtype to the drug or regimen [1]: very sensitive

O=P1(N(CCCl)CCCl)NCCCO1 (centres unmarked) [cyclophosphamide]
tumor response to the treatment regimen (tumors): complete regression

CN(Cc1cnc2nc(N)nc(N)c2n1)c1ccc(C(=O)N[C@@H](CCC(=O)O)C(=O)O)cc1 [methotrexate]
sensitivity / response of the breast cancer subtype to the drug or regimen [1]: relatively insensitive
